Tests used:
Type in all cases: in vivo, beagle dogs
[1] = system: vomiting induced by a central emetic agent apomorphine in dogs; assay: Vomiting induced by apomorphine in dogs; details: apomorphine 0.1 mg/kg subcutaneous; for B: Frequency of vomiting (mean ± SD) / C: Time period until first vomiting (minute; mean ± SD) / D: Duration of vomiting (minute; mean ± SD) / Number of dogs with vomiting/number of tested dogs: one hour
Procedure: 3 male or female beagle dogs (7.8 to 15.9 kg) per one group were used. Apomorphine was subcutaneously given at 0.1 mg/ml/kg. 2.5 hours prior to apomorphine administration, a small amount of a feed was given to the animals. 30 minutes thereafter, predetermined doses of the compound No. 3 were orally given. Similarly, 0.5 % methyl cellulose solution was orally given to a control animal group under no fasting. A predetermined dose of ondansetron was given orally to the animals under fasting. The frequency of vomiting was counted in number, up to one hour after apomorphine administration. The compound No. 3 was dissolved in 0.5 % methyl cellulose solution, for oral dosing at a ratio of 1 ml per 1 kg • body weight. An injection of ondansetron at a concentration of 0.2% w/v was orally given. Additionally, 0.5 % methyl cellulose solution was orally given at a ratio of 1 ml per 1 kg • body weight. The data relating to the frequency of vomiting, the latency and the time period from the occurrence of vomiting to the termination thereof were statistically analyzed by the Dunnett test, with reference to the difference from the control group.
The vomiting suppression ratio was calculated by the following formula.

[2] = system: acute vomiting induced by a central emetic agent loperamide in dogs; assay: Acute vomiting induced by loperamide in dogs; details: loperamide 1 mg/kg subcutaneous; for B: Frequency of vomiting (mean ± SD) / C: Time period until first vomiting (minute; mean ± SD) / D: Duration of vomiting (minute; mean ± SD) / Number of dogs with vomiting/number of tested dogs: 3 hours
Procedure: 3 male or female beagle dogs (7.7 to 12.7 kg) per one group were used. Loperamide was subcutaneously given at 1 mg/ml/kg. 2.5 hours prior to loperamide administration, a small amount of a feed was given to the animals. 30 minutes thereafter, predetermined doses of the compound No. 3 were orally given. Similarly, 0.5 % methyl cellulose solution was orally given to a control animal group under no fasting. Predetermined doses of naloxone and ondansetron were given intravenously and orally, respectively to the animals under fasting, 30 minutes prior to loperamide administration. The frequency of vomiting was counted, up to 3 hours after loperamide administration. The compound No. 3 was dissolved in 0.5 % methyl cellulose solution, for oral dosing at a ratio of 0.25 to 1 ml per 1 kg body weight. Additionally, naloxone was intravenously given in a solution at a concentration of 0.05 % w/v. An injection of ondansetron at a concentration of 0.2 % w/v was orally given. Still additionally, 0.5 % methyl cellulose solution was orally given at a ratio of 1 ml per 1 kg body weight. The data relating to the frequency of vomiting, the latency and the time period from the occurrence of vomiting to the termination thereof were statistically analyzed by the Dunnett test, with reference to the difference from the control group.
The vomiting suppression ratio was calculated by the following formula. [Frequency of retching or vomiting in control] - [Frequency of retching or vomiting in animals dosed with compound No. 3] / [frequency of retching or vomiting in control] x 100 (%) [formula]

[3] = system: morphine-induced vomiting in dogs; assay: Morphine-induced vomiting in dogs, oral dosing; details: morphine 0.3 mg/kg subcutaneous
Procedure: Male 6 or 7 beagle dogs (8.8 to 14.5 kg) per one group were used. Morphine was subcutaneously administered at 0.3 mg/0. 03 ml/kg. 2.5 hours before morphine dosing, a small amount of a feed was given to the animals. 30 minutes thereafter, predetermined doses of the compound No. 3 were orally given. To a control animal group under no fasting was orally given a predetermined volume of 0.5 % methyl cellulose solution. A predetermined dose of ondansetron was orally given to the animals under fasting. To a control animal group of ondansetron under fasting was orally given a predetermined volume of physiological saline. The frequency of vomiting was counted up to 30 minutes after morphine dosing.
The compound No. 3 was suspended in 0.5 % methyl cellulose solution and was then orally administered at a ratio of 1 ml per 1 kg body weight. An injection of ondansetron at a concentration of 0.2 w/v % was orally dosed. Additionally, 0.5 % methyl cellulose solution was orally given at a ratio of 1 ml per 1 kg body weight, while physiological saline was orally given at a ratio of 0.5 ml per 1 kg body weight. The data relating to the frequency of vomiting, the time period (latency) until first vomiting and the time period from the occurrence of vomiting to the termination thereof were statistically analyzed by the Dunnett test or t test, with reference to the difference from the control group.
The retching suppression ratio and vomiting suppression ratio were calculated by the following formula. [Frequency of retching or vomiting in control] - [Frequency of retching or vomiting in animals dosed with compound No. 3] / [Frequency of retching or vomiting in control] x 100 (%) [formula]

[4] = 1 mg/kg p.o., under fasting, 30 minutes

## Cc1ccc(-c2c3n(c(=O)c4ncccc24)CC[C@@H](C)CN(Cc2cc(C(F)(F)F)cc(C(F)(F)F)c2)C3=O)cc1 [Cpd. No.3, (9R)-7-[3,5-bis(trifluoromethyl)benzyl]-6,7,8,9,10,11-hexahydro-9-methyl-5-(4-methylphenyl)-6,13-dioxo-13H-[1,4]diazocino[2,1-g][1,7]naphthylidine]
[1]; 3 mg/kg p.o.
  Effect on vomiting (in words): likely to be suppressed
  Vomiting suppression ratio: 48 % NS
  B: Frequency of vomiting (mean ± SD): 6.3 ± 1.3
  C: Time period until first vomiting (minute; mean ± SD): 7.2 ± 0.6 min
  D: Duration of vomiting (minute; mean ± SD): 12.0 ± 3.0 min
  Number of dogs with vomiting/number of tested dogs: 3/3
[1]; 10 mg/kg p.o.
  Effect on the duration of vomiting from the start to the termination (in words): greatly shortened
  Effect on vomiting (in words): prominently suppressed
  Vomiting suppression ratio: 89 % a
  B: Frequency of vomiting (mean ± SD): 1.3± 0.9b
  C: Time period until first vomiting (minute; mean ± SD): 27.6 ± 13.8 min
  D: Duration of vomiting (minute; mean ± SD): 1.2 ± 1.2 a minute
  Number of dogs with vomiting/number of tested dogs: 2/3
[2]; 0.01 mg/kg p.o.
  Vomiting suppression ratio: 20 % NS
  B: Frequency of vomiting (mean ± SD): 8.0 ± 2.5
  C: Time period until first vomiting (minute; mean ± SD): 0.74 ± 0.07 min
  D: Duration of vomiting (minute; mean ± SD): 1.24 ± 0.21 min
  Number of dogs with vomiting/number of tested dogs: 3/3
[2]; 0.03 mg/kg or higher p.o.
  Effect on vomiting (in words): significantly suppressed
[2]; 0.03 mg/kg p.o.
  Vomiting suppression ratio: 80 % a
  B: Frequency of vomiting (mean ± SD): 2.0 ± 0.6 a
  C: Time period until first vomiting (minute; mean ± SD): 1.08 ± 0.11 min
  D: Duration of vomiting (minute; mean ± SD): 0.44 ± 0.22 min
  Number of dogs with vomiting/number of tested dogs: 3/3
[2]; 0.1 mg/kg p.o.
  Vomiting suppression ratio: 73 % a
  B: Frequency of vomiting (mean ± SD): 2.7 ± 2.2 a
  C: Time period until first vomiting (minute; mean ± SD): 1.98 ± 0.55 a minute
  D: Duration of vomiting (minute; mean ± SD): 0.59 ± 0.59 min
  Number of dogs with vomiting/number of tested dogs: 2/3
[2]; 1 mg/kg p.o.
  Vomiting suppression ratio: 67 % a
  B: Frequency of vomiting (mean ± SD): 3.3 ± 1.2 a
  C: Time period until first vomiting (minute; mean ± SD): 1.25 ± 0.35 min
  D: Duration of vomiting (minute; mean ± SD): 0.68 ± 0.34 min
  Number of dogs with vomiting/number of tested dogs: 3/3
[2]; 3 mg/kg p.o.
  Vomiting suppression ratio: 70 % a
  B: Frequency of vomiting (mean ± SD): 3.0 ± 0.6 a
  C: Time period until first vomiting (minute; mean ± SD): 1.63 ± 0.34 min
  D: Duration of vomiting (minute; mean ± SD): 0.38 ± 0.13 a minute
  Number of dogs with vomiting/number of tested dogs: 3/3
[2]; 10 mg/kg p.o.
  Effect on vomiting (in words): completely suppressed
  Vomiting suppression ratio: 100 % b
  B: Frequency of vomiting (mean ± SD): 0 b
  C: Time period until first vomiting (minute; mean ± SD): 3 b minute
  D: Duration of vomiting (minute; mean ± SD): 0 b minute
  Number of dogs with vomiting/number of tested dogs: 0/3
[3]; 0.1 mg/kg p.o.
  Acute vomiting suppression ratio: 55 % NS
[3]; 0.1 mg/kg p.o., 30 minutes
  B: Frequency of vomiting (mean ± 3D): 1.0 ± 0
  C: Time period until first vomiting (minute; mean ± SD): 8.7 ± 1.2 min
  D: Duration of vomiting (minute; mean ± SD): 0 min
  Number of dogs with vomiting/number of tested dogs: 3/3
[3]; 0.3 mg/kg p.o.
  Acute vomiting suppression ratio: 86 % NS
  Effect on vomiting (in words): significantly suppressed
[3]; 0.3 mg/kg p.o., 30 minutes
  B: Frequency of vomiting (mean ± 3D): 0.3 ± 0.3a
  C: Time period until first vomiting (minute; mean ± SD): 22.0 ± 8.0 a minute
  D: Duration of vomiting (minute; mean ± SD): 0 min
  Number of dogs with vomiting/number of tested dogs: 1/3
[3]; 1 mg/kg p.o.
  Acute vomiting suppression ratio: 100 % b
  Effect on vomiting (in words): completely suppressed
[3]; 1 mg/kg p.o., 30 minutes
  B: Frequency of vomiting (mean ± 3D): 0 b
  C: Time period until first vomiting (minute; mean ± SD): 30 b minute
  D: Duration of vomiting (minute; mean ± SD): 0 min
  Number of dogs with vomiting/number of tested dogs: 0/3

## Cc1nccn1CC1CCc2c(c3ccccc3n2C)C1=O (centres unmarked) [Ondansetron, ondansetron, reference compound]
[1]; 10 mg/kg p.o.
  Effect on vomiting (in words): did not suppress
  Vomiting suppression ratio: 0 % NS
  B: Frequency of vomiting (mean ± SD): 13.7 ± 2.4
  C: Time period until first vomiting (minute; mean ± SD): 2.4 ± 0.6 min
  D: Duration of vomiting (minute; mean ± SD): 22.8 ± 3.6 min
  Number of dogs with vomiting/number of tested dogs: 3/3
[2]; 10 mg/kg p.o.
  Effect on vomiting (in words): did not suppress
  Vomiting suppression ratio: 3 % NS
  B: Frequency of vomiting (mean ± SD): 9.7 ± 2.7
  C: Time period until first vomiting (minute; mean ± SD): 0.50 ± 0.14 min
  D: Duration of vomiting (minute; mean ± SD): 1.30 ± 0.11 min
  Number of dogs with vomiting/number of tested dogs: 3/3
[3]; 1 mg/kg p.o.
  Acute vomiting suppression ratio: 48 % NS
  Effect on vomiting (in words): did not suppress
[3]; [4]
  B: Frequency of vomiting (mean ± SD): 1.7 ± 0.3
  C: Time period until first vomiting (minute; mean ± SD): 5.0 ± 1.0 min
  D: Duration of vomiting (minute; mean ± SD): 1.0 ± 0.6 min
  Number of dogs with vomiting/number of tested dogs: 3/3
